Experimental data reported in patent US20090286781A1, “Use of Suluble Guanylate Cyclase Acitvators for Treating Acute and Chronic Lung Diseases” (Bayer HealtHCare AG, priority 2005, published 2009).

Tested on: male C57B1/6J mice subjected to hypoxia (10% O2)
Experiment: Hypoxia model of experimental pulmonary hypertension
Type: in vivo
Details: hypoxia (10% O2) for 7 or 10 days; 300 ppm of compound in the feed for 10 days; lung histology; compared with the hypoxia control animals (FIG. 1)
Text: The method for investigating the effect of the compound (IV) of the invention in the model of experimental pulmonary hypertension was as described (Dumitrascu R, Weissmann N, Ghofrani H A, Beuerlein K, Schmidt H H H W, Stasch J P, Gnoth M J, Seeger W, Grimminger F, Schermuly R T, Activation of soluble guanylate cyclase reverses lung vascular remodeling and pulmonary hypertension evoked by hypoxia in mice, Circulation 2006, 113: 286-295). For this purpose, male C57B1/6J mice (Charles River Laboratories) were subjected to hypoxia (10% O2) for 7 or 10 days. The control animals were kept in a normal oxygen environment. The mice were treated for 10 days with 300 ppm of compound (IV) in the feed. At the end of the test, the mice were sacrificed and the lungs were isolated. Histological workup and evaluation was carried out as in the abovementioned publication.

Compound: COC(=O)N(C)c1c(N)nc(-c2nn(Cc3ccccc3F)c3ncccc23)nc1N [Compound (IV)]
- non-muscularized and partly muscularized fraction of the pulmonary vessels: significantly reduced
